Values joined by “and” are separate entries in the source; they are usually repeats but may differ in a detail not shown here. Equal values may be shown once.
What was measured:
[1] = target: T1, BChE (from bovine serum) (Bos taurus, UniProt P32749); assay: BChE inhibitory activity (Ellman method); type: biochemical; conditions: for IC50: Table 2, THQ–isoxazole hybrids 6, average from three independent experiments ± SEM, read-out: BChE (IC50); for selectivity against BChE: conclusions
T1 construct: purchased Sigma-Aldrich
T1 sequence (P32749 29-602): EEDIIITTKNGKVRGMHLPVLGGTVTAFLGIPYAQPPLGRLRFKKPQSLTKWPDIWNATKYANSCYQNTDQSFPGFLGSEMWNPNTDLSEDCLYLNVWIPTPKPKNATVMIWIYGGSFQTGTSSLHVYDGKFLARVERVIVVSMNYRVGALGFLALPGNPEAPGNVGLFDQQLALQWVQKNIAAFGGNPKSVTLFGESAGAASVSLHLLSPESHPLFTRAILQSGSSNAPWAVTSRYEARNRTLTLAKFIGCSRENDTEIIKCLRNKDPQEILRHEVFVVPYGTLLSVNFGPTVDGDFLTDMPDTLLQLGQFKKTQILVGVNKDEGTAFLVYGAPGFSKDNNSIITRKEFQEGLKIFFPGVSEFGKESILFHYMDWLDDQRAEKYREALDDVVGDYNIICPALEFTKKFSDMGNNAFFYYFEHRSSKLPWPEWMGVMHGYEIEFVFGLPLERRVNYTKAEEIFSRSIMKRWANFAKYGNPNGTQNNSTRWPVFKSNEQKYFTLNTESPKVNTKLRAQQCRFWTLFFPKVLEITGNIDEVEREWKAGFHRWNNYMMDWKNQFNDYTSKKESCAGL

[2] = target: AChE (from Electrophorus electricus) (Electrophorus electricus, UniProt O42275); conditions: for IC50: read-out: AChE (IC50)
Sequence of AChE (from Electrophorus electricus) (O42275 24-633): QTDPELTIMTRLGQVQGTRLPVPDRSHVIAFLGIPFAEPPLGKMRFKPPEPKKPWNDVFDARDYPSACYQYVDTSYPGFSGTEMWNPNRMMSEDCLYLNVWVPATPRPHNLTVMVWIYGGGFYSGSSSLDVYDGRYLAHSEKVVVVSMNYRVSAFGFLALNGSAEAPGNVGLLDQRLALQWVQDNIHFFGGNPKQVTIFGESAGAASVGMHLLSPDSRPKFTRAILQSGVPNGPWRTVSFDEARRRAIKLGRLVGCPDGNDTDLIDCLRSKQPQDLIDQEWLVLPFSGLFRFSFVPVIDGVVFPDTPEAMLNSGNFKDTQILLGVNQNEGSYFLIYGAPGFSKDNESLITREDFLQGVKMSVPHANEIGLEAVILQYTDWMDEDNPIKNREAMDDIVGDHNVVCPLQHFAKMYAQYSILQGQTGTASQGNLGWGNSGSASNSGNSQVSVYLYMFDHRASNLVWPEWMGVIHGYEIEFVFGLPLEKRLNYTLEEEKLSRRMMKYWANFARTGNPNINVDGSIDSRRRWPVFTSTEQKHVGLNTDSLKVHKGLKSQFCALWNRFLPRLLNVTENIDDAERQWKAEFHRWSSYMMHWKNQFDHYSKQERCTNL

Compound | IC50 [1] | SI [2] | IC50 [2] | selectivity against BChE [1]
COc1cc(Cl)c2c(c1)C(N1CCCC1=O)CCN2Cc1cc(-c2ccc(OC)c(OC)c2)no1 (centres unmarked) [6j, 5-((8′-chloro-6′-methoxy-4′-(2′’-oxopyrrolidin-1′’-yl)-3′,4′-dihydroquinolin-1′(2′H)-yl)methyl)-3-(3,4-dimethoxyphenyl)isoxazole] | 149 ± 0.02 µM | 2.72 | 54.69 ± 0.01 µM | –
COc1ccc2c(c1)C(N1CCCC1=O)CCN2Cc1cc(-c2cc(OC)c(OC)c(OC)c2)no1 (centres unmarked) [6k, 3-(3,4,5-trimethoxyphenyl)-5-((6′-methoxy-4′-(2′’-oxopyrrolidin-1′’-yl)-3′,4′-dihydroquinolin-1′(2′H)-yl)methyl)isoxazole] | 73.26 ± 0.01 µM | 3.63 | 20.19 ± 0.02 µM | –
O=C1CCCN1C1CCN(Cc2cc(-c3ccccc3)no2)c2ccc(Cl)cc21 (centres unmarked) [6l, 5-((6′-chloro-4′-(2′’-oxopyrrolidin-1′’-yl)-3′,4′-dihydroquinolin-1′(2′H)-yl)methyl)-3-phenylisoxazole] | 14.11 ± 0.02 µM | 0.15 | 92.01 ± 0.05 µM | more selective
COc1ccc(-c2cc(CN3CCC(N4CCCC4=O)c4cc(Cl)ccc43)on2)cc1 (centres unmarked) [6m, 5-((6′-chloro-4′-(2′’-oxopyrrolidin-1′’-yl)-3′,4′-dihydroquinolin-1′(2′H)-yl)methyl)-3-(4-methoxyphenyl)isoxazole] | 18.42 ± 0.01 µM | 1.39 | 13.27 ± 0.01 µM | –
COc1ccc(-c2cc(CN3CCC(N4CCCC4=O)c4cc(Cl)ccc43)on2)cc1OC (centres unmarked) [6n, 5-((6′-chloro-4′-(2′’-oxopyrrolidin-1′’-yl)-3′,4′-dihydroquinolin-1′(2′H)-yl)methyl)-3-(3,4-dimethoxyphenyl)isoxazole] | 24.67 ± 0.01 µM | 2.75 | 8.98 ± 0.01 µM | –
COc1ccc(-c2cc(CN3CCC(N4CCCC4=O)c4cc(Cl)cc(Cl)c43)on2)cc1OC (centres unmarked) [6o, 5-((6′,8′-dichloro-4′-(2′’-oxopyrrolidin-1′’-yl)-3′,4′-dihydroquinolin-1′(2′H)-yl)methyl)-3-(3,4-dimethoxyphenyl)isoxazole] | 313.82 ± 0.01 µM | 3.88 | 80.89 ± 0.04 µM | –
COc1cc(-c2cc(CN3CCC(N4CCCC4=O)c4cc(Cl)ccc43)on2)cc(OC)c1OC (centres unmarked) [6p, 5-((6′-chloro-4′-(2′’-oxopyrrolidin-1′’-yl)-3′,4′-dihydroquinolin-1′(2′H)-yl)methyl)-3-(3,4,5-trimethoxyphenyl)isoxazole] | 46.84 ± 0.01 µM | 1.11 | 41.95 ± 0.11 µM | –
CCc1ccc2c(c1)C(N1CCCC1=O)CCN2Cc1cc(-c2ccccc2)no1 (centres unmarked) [6q, 5-((6′-ethyl-4′-(2′’-oxopyrrolidin-1′’-yl)-3′,4′-dihydroquinolin-1′(2′H)-yl)methyl)-3-phenylisoxazole] | 108.28 ± 0.01 µM | 1.43 | 75.95 ± 0.04 µM | –
CCc1ccc2c(c1)C(N1CCCC1=O)CCN2Cc1cc(-c2ccc(OC)cc2)no1 (centres unmarked) [6r, 5-((6′-ethyl-4′-(2′’-oxopyrrolidin-1′’-yl)-3′,4′-dihydroquinolin-1′(2′H)-yl)methyl)-3-(4-methoxyphenyl)isoxazole] | < 7.18 µM and 7.18 µM | 0.38 | 18.83 ± 0.003 µM | –
CCc1cc(Cl)c2c(c1)C(N1CCCC1=O)CCN2Cc1cc(-c2ccc(OC)c(OC)c2)no1 (centres unmarked) [6s, 5-((8′-chloro-6′-ethyl-4′-(2′’-oxopyrrolidin-1′’-yl)-3′,4′-dihydroquinolin-1′(2′H)-yl)methyl)-3-(3,4-dimethoxyphenyl)isoxazole] | 22.28 ± 0.004 µM | 0.83 | 26.82 ± 0.002 µM | –
O=C1CCCN1C1CCN(Cc2cc(-c3ccccc3)no2)c2ccc(F)cc21 (centres unmarked) [6u, 5-((6′-fluor-4′-(2′’-oxopyrrolidin-1′’-yl)-3′,4′-dihydroquinolin-1′(2′H)-yl)methyl)-3-phenylisoxazole] | 17.74 ± 0.01 µM | 0.15 | 116.63 ± 0.01 µM | more selective
COc1ccc(-c2cc(CN3CCC(N4CCCC4=O)c4cc(F)ccc43)on2)cc1 (centres unmarked) [6v, 5-((6′-fluoro-4′-(2′’-oxopyrrolidin-1′’-yl)-3′,4′-dihydroquinolin-1′(2′H)-yl)methyl)-3-(4-methoxyphenyl)isoxazole] | 83.75 ± 0.01 µM | 1.97 | 42.48 ± 0.004 µM | –
COc1ccc(-c2cc(CN3CCC(N4CCCC4=O)c4cc(F)ccc43)on2)cc1OC (centres unmarked) [6w, 5-((6′-fluoro-4′-(2′’-oxopyrrolidin-1′’-yl)-3′,4′-dihydroquinolin-1′(2′H)-yl)methyl)-3-(3,4-dimethoxyphenyl)isoxazole] | 46.92 ± 0.01 µM | 2.79 | 16.83 ± 0.002 µM | –
COc1cc(-c2cc(CN3CCC(N4CCCC4=O)c4cc(F)ccc43)on2)cc(OC)c1OC (centres unmarked) [6x, 5-((6′-fluoro-4′-(2′’-oxopyrrolidin-1′’-yl)-3′,4′-dihydroquinolin-1′(2′H)-yl)methyl)-3-(3,4,5-trimethoxyphenyl)isoxazole] | 163.12 ± 0.01 µM | 6.57 | 24.83 ± 0.003 µM | –
O=C1CCCN1C1CCN(Cc2cc(-c3ccccc3)no2)c2ccc(Br)cc21 (centres unmarked) [6y, 5-((6′-bromo-4′-(2′’-oxopyrrolidin-1′’-yl)-3′,4′-dihydroquinolin-1′(2′H)-yl)methyl)-3-phenylisoxazole] | 84.91 ± 0.01 µM | 0.87 | 97.84 ± 0.01 µM | –
COc1ccc(-c2cc(CN3CCC(N4CCCC4=O)c4cc(Br)ccc43)on2)cc1 (centres unmarked) [6z, 3-(4-methoxyphenyl)-5-((6′-bromo-4′-(2′’-oxopyrrolidin-1′’-yl)-3′,4′-dihydroquinolin-1′(2′H)-yl)methyl)isoxazole] | < 7.18 µM and 5.81 µM | 0.48 | 12.19 ± 0.005 µM | –

From article PMC6981637, “Tetrahydroquinoline-Isoxazole/Isoxazoline Hybrid Compounds as Potential Cholinesterases Inhibitors: Synthesis, Enzyme Inhibition Assays, and Molecular Modeling Studies” (International Journal of Molecular Sciences, 2019)
